# In patent US11306063B2, “Heterocyclic naphthoquinones derivatives for use in the treatment of cancers including Cushing disease” (Commissariat a l'Energie Atomique et aux Energies …, priority 2016, dated 2022):
# Read-outs that look alike come from different tables or passages of the source.
# How the values were obtained:
# [1] = target: T1, USP2^CD (purified catalytic domain of USP2) (Homo sapiens, UniProt O75604); assay: Inhibition of purified USP2^CD enzymatic activity (Ub-AMC or Ub-Rho substrate); assay type: biochemical; conditions: for inhibition at 0.01 µM: 0.01 μM compound; for inhibition at 0.05 µM: 0.05 μM compound; for inhibition at 0.1 µM: 0.1 μM compound; for inhibition at 0.5 µM: 0.5 μM compound; for inhibition at 1 µM: 1 μM compound; for inhibition at 5 µM: 5 μM compound; for inhibition at 10 µM: 10 μM compound; for inhibition at 25 µM: 25 μM compound; for inhibition at 50 µM: 50 μM compound; for IC50: read-out: IC50 USP2 CD
# T1 construct: The purified catalytic domain of USP2 (USP2^CD, in-house purified); His; made in house; host or cells: E. coli BL21 Gold
# T1 sequence (O75604 267-599 limits assumed): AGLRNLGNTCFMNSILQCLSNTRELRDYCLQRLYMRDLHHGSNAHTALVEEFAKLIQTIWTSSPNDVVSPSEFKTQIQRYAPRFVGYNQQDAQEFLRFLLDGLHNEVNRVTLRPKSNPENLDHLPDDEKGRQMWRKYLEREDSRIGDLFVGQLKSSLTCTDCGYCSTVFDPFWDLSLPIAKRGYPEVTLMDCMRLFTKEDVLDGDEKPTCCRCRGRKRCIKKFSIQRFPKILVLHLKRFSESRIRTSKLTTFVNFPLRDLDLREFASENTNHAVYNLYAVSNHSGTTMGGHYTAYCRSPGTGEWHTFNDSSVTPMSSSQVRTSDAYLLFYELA
# Description: (§1) USP2CD or USP8CD were expressed in E. coli BL21 Gold. Cells were grown in LB Miller to mid-log phase and induced by addition of 0.5 mM IPTG for USP2CD for 5 h at 20° C., while 1 mM IPTG was added for USP8CD for 3 h at 37° C. Then, cells were harvested and frozen at −80° C.
# For His-tagged USP2CD, cells were resuspended in buffer C (10 mM TRIS pH 8.0, 100 mM NaCl, 10 mM Imidazole) and lysed using a sonicator. The lysate was clarified by centrifugation and applied to Ni Sepharose6 Fast Flow resin (GE Healthcare). The resin was sequentially washed with buffer C, then with buffer C containing 50 mM Imidazole. Protein sample was eluted from the resin using buffer C containing 250 mM Imidazole. The eluted protein was buffer exchanged by gel-filtration on a Superdex 200 10/300 GL column (GE Healthcare) equilibrated in Buffer D (15 mM Bis-TRIS pH 6.0, 100 mM NaCl, 1 mM dithiothreitol (DTT)).
# (§2) Enzymatic assay was performed in a HEPES buffer (50 mM pH7.6 1 mM DTT, 2% glycerol, 0.5 mM EDTA) or in a Tris buffer (40 mM pH7.4 1 mM DTT, 5% glycerol, 0.05 mg/ml BSA) respectively, following manufacturer's instructions. Compounds were added to the reaction mixture just prior to the substrate. The enzymatic reaction kinetics was monitored through the apparition of fluorescence due to the hydrolysis of the peptidyl Ub-AMC or Ub-Rho bound over 20 or 30 minutes.
# (§3) Medium value out of duplicates is reported.
# [2] = target: T2, USP8^CD (purified catalytic domain of USP8) (Homo sapiens, UniProt P40818); assay: Inhibition of purified USP8^CD enzymatic activity (Ub-AMC or Ub-Rho substrate); assay type: biochemical; conditions: for inhibition at 0.01 µM: 0.01 μM compound; for inhibition at 0.05 µM: 0.05 μM compound; for inhibition at 0.1 µM: 0.1 μM compound; for inhibition at 0.5 µM: 0.5 μM compound; for inhibition at 1 µM: 1 μM compound; for inhibition at 5 µM: 5 μM compound; for inhibition at 10 µM: 10 μM compound; for inhibition at 25 µM: 25 μM compound; for inhibition at 50 µM: 50 μM compound; for IC50: read-out: IC50 USP8 CD
# T2 construct: the purified catalytic domain of USP8 (USP8^CD, in-house purified); made in house; host or cells: E. coli BL21 Gold
# T2 sequence (P40818 777-1109 limits assumed): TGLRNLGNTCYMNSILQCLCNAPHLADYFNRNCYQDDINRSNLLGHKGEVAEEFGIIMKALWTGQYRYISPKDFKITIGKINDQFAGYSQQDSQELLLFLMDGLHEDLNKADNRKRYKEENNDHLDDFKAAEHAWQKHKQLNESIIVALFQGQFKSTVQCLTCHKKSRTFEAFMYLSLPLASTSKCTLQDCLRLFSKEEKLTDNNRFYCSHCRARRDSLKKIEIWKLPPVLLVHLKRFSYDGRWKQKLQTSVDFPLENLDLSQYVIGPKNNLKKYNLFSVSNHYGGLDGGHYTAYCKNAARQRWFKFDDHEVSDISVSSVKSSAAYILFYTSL
# Description: as §1
# For His-tagged USP8CD, cells were resuspended in buffer A (50 mM TRIS pH 8.0, 500 mM NaCl, 2 mM Imidazole) and lysed using a sonicator. The lysate was clarified by centrifugation and applied to Ni Sepharose6 Fast Flow resin (GE Healthcare). The resin was sequentially washed first with buffer A containing 10 mM Imidazole then with buffer A containing 20 mM Imidazole, and finally with buffer A containing 50 mM Imidazole. Protein sample was eluted from the resin using buffer A containing 300 mM Imidazole. The eluted protein was buffer exchanged by gel-filtration on a Superdex 200 10/300 GL column (GE Healthcare) equilibrated in Buffer B (20 mM HEPES pH 7.5, 300 mM NaCl, 2 mM dithiothreitol (DTT)).
# as §2, §3
# [3] = Ub-AMC substrate at 1 μM, Table 2b
# [4] = Ub-Rhodamine substrate at 0.1 μM, Table 2c
Compound,inhibition at 0.01 µM ([1]; Table 1c) [%],inhibition at 0.05 µM ([1]; Table 1c) [%],inhibition at 0.1 µM ([1]; Table 1c) [%],inhibition at 0.5 µM ([1]; Table 1c) [%],inhibition at 1 µM ([1]; Table 1b) [%],inhibition at 1 µM ([1]; Table 1c) [%],inhibition at 5 µM ([1]; Table 1b) [%],inhibition at 5 µM ([1]; Table 1c) [%],inhibition at 10 µM ([1]; Table 1c) [%],inhibition at 25 µM ([1]; Table 1b) [%],inhibition at 50 µM ([1]; Table 1b) [%],"IC50 [1, 3] [µM]",inhibition at 0.01 µM ([2]; Table 1d) [%],inhibition at 0.05 µM ([2]; Table 1d) [%],inhibition at 0.1 µM ([2]; Table 1d) [%],inhibition at 1 µM ([2]; Table 1b) [%],inhibition at 5 µM ([2]; Table 1b) [%],inhibition at 25 µM ([2]; Table 1b) [%],inhibition at 50 µM ([2]; Table 1b) [%],"IC50 [2, 3] [nM]",further results
O=C1c2ccccc2C(=O)c2nc(CS(=O)(=O)c3ccc(Br)s3)c(CS(=O)(=O)c3ccc(Br)s3)nc21 [OVM16],,,,,1,,26,,,42,80,,,,,10,56,92,104,,
O=C1c2ccccc2C(=O)c2nc(CS(=O)(=O)c3cccc(C(F)(F)F)c3)c(CS(=O)(=O)c3cccc(C(F)(F)F)c3)nc21 [OVM17],,,,,-11,,9,,,27,25,,,,,25,33,68,85,,
O=C1c2ccccc2C(=O)c2nc(CS(=O)(=O)c3ccc(F)c(F)c3F)c(CS(=O)(=O)c3ccc(F)c(F)c3F)nc21 [OVM23],-20,-26,-22,16,69,18,53,-1,4,94,97,> 10,-5,12,24,83,92,100,103,2200,inhibition at 0.5 µM ([2]; Table 1d): 20%; inhibition at 1 µM ([2]; Table 1d): 34%; inhibition at 5 µM ([2]; Table 1d): 74%; inhibition at 10 µM ([2]; Table 1d): 80%
COc1ccc(S(=O)(=O)Cc2nc3c(nc2CS(=O)(=O)c2ccc(OC)cc2)C(=O)c2ccccc2C3=O)cc1 [PCR7994],-8,-12,2,26,-9,5,22,8,17,53,50,> 10,-7,-13,-23,62,68,91,100,5000,inhibition at 0.5 µM ([2]; Table 1d): 18%; inhibition at 1 µM ([2]; Table 1d): 31%; inhibition at 5 µM ([2]; Table 1d): 52%; inhibition at 10 µM ([2]; Table 1d): 73%
CS(=O)(=O)Cc1nc2c(nc1CS(C)(=O)=O)C(=O)c1ccccc1C2=O [VIN6076],17,-7,4,6,23,57,66,19,56,95,97,> 10,27,14,30,77,100,106,103,500,"IC50 [1, 4]: 0.65 µM; inhibition at 0.5 µM ([2]; Table 1d): 47%; inhibition at 1 µM ([2]; Table 1d): 85%; inhibition at 5 µM ([2]; Table 1d): 90%; inhibition at 10 µM ([2]; Table 1d): 98%; IC50 [2, 4]: 10 nM"

# Continued, in another order:
inhibition at 0.01 µM ([1]; Table 1c) [%],inhibition at 0.05 µM ([1]; Table 1c) [%],inhibition at 0.1 µM ([1]; Table 1c) [%],inhibition at 0.5 µM ([1]; Table 1c) [%],inhibition at 1 µM ([1]; Table 1b) [%],inhibition at 1 µM ([1]; Table 1c) [%],inhibition at 5 µM ([1]; Table 1b) [%],inhibition at 5 µM ([1]; Table 1c) [%],inhibition at 10 µM ([1]; Table 1c) [%],inhibition at 25 µM ([1]; Table 1b) [%],inhibition at 50 µM ([1]; Table 1b) [%],"IC50 [1, 3] [µM]",inhibition at 0.01 µM ([2]; Table 1d) [%],inhibition at 0.05 µM ([2]; Table 1d) [%],inhibition at 0.1 µM ([2]; Table 1d) [%],inhibition at 1 µM ([2]; Table 1b) [%],inhibition at 5 µM ([2]; Table 1b) [%],inhibition at 25 µM ([2]; Table 1b) [%],inhibition at 50 µM ([2]; Table 1b) [%],"IC50 [2, 3] [nM]",Compound,further results
9,-20,-32,-3,17,-6,48,10,1,66,41,> 10,-22,3,-9,60,88,102,94,400,O=C1c2ccccc2C(=O)c2nc(CS(=O)(=O)c3cccc(F)c3)c(CS(=O)(=O)c3cccc(F)c3)nc21 [OVM13],"inhibition at 0.5 µM ([2]; Table 1d): 44%; inhibition at 1 µM ([2]; Table 1d): 65%; inhibition at 5 µM ([2]; Table 1d): 76%; inhibition at 10 µM ([2]; Table 1d): 35%; IC50 [2, 4]: 400 nM"
19,3,3,23,0,37,1,-10,17,16,30,> 10,24,16,14,68,51,70,83,400,O=C1c2ccccc2C(=O)c2nc(CS(=O)(=O)c3cccc(Cl)c3)c(CS(=O)(=O)c3cccc(Cl)c3)nc21 [OVM15],"inhibition at 0.5 µM ([2]; Table 1d): 18%; inhibition at 1 µM ([2]; Table 1d): 64%; inhibition at 5 µM ([2]; Table 1d): 52%; inhibition at 10 µM ([2]; Table 1d): 51%; IC50 [2, 4]: 400 nM"
-19,-14,13,-1,20,9,25,-3,11,21,18,> 10,-22,-5,-9,53,61,76,77,7500,O=C1c2ccccc2C(=O)c2nc(CS(=O)(=O)c3ccc4c(c3)OCCO4)c(CS(=O)(=O)c3ccc4c(c3)OCCO4)nc21 [OVM19],inhibition at 0.5 µM ([2]; Table 1d): 17%; inhibition at 1 µM ([2]; Table 1d): 44%; inhibition at 5 µM ([2]; Table 1d): 46%; inhibition at 10 µM ([2]; Table 1d): 54%
,,,,,,,,,,,17,,,,,,,,4500,O=C1c2ccccc2C(=O)c2nc(CBr)c(CBr)nc21 [PCR8132],
